Measurements as given in patent US9290529B2, “Carbonic anhydrase inhibitors and method of their production” (USTAV ORGANICKE CHEMIE A BIOCHEMIE AKADEMIE VED CESKE …, priority 2011, dated 2016).
Read-outs that look alike come from different tables or passages of the source.

How the values were obtained:
[1] = test system: CCRF-CEM cells; assay: Flow cytometric measurement of intracellular pH (pHi), CA IX negative CCRF-CEM; format: cell-based, human; conditions: carboranes at 1 μM, 24 hour incubation, control 7.362
Protocol: The effect of carborane CAIX (carbonic anhydrase IX) inhibitors was evaluated on colorectal cancer cell line HCT116 expressing CAIX enzyme versus CA IX negative cell line of T-lymphoblastic leukemia CCRF-CEM. Acetazolamide, a known inhibitor of CAIX, was used as a standard. HCT116/CCRF-CEM cells were cultivated in McCoy/RPMI Media supplemented with 10% FCS and antibiotics and seeded at high density ([…] per 3.5 cm dish) to induce pericellular hypoxia and thus stimulate CA IX expression. Measurement of pHi was assessed as described in Cianchi et al. [Cianchi F., et al. Selective inhibition of carbonic anhydrase IX decreases cell proliferation and induces […] apoptosis in human cancer cells. The Journal of Pharmacology and Experimental Therapeutics, 2010, Vol. 334, No. 3, 710-719].
[…] The pHi was measured by flow cytometry in cell cultures pretreated with 10 μM of pH sensitive probe carboxyseminaphtorhoda-fluor-1-acetoxymethyl ester (SNARF, Invitrogen, CA) for 15 min at 37° C. After incubation, the cells were washed twice with PBS. Because the addition of bicarbonate can affect pHi, all incubation and cell washes were performed in bicarbonate-free buffer. SNARF was excited at 488 nm and emitted at 580 and 640 nm. The ratio of the emission wavelengths at 640/580 nm was then used to estimate the pHi from a calibration curve. The calibration curve was prepared by nigericin clamp technique. In this method, after the SNARF labeling of untreated cells, aliquots of cell suspensions were re-suspended in a high potassium containing buffer at specific pH (usually 6.8, 7.0, 7.2, 7.4, 7.6 and 7.8). The cell suspensions were then clamped at a specific pH value by the addition of 0.03 μM nigericin (Sigma-Aldrich). Nigericin is a ionophore that allows the exchange of H for K ions, thus abolishing the pH gradient across the cell membrane. When the internal and external K concentrations are approximately equal, the pH rapidly equilibrates to the pH of the bathing solution. A total of 20,000 events were acquired on a FACS ARIA II flow cytometer (Becton. Dickinson) for further analysis.
The fluorescent ratio values (640/580 nm) calculated for each pH point were further used to construct calibration curve in Prism software (GraphPad Software, Inc., San Diego, Calif.), from which the pHi values in treated cells were determined (Table 3).

[2] = target: T1, human carbonic anhydrase II (hCA II) (Homo sapiens, UniProt P00918); assay: Colorimetric carbonic anhydrase inhibition assay (CO2 hydration, phenol red), hCA II; format: biochemical; conditions: 0° C., HEPES pH 7.0
T1 construct: purchased Sigma Aldrich C6165
Protocol: (§1) The compounds were assayed for inhibition activity of two isoforms of human carbonic anhydrase: hCA II and hCA IX. The human carbonic anhydrase II (HCA II) was purchased from Sigma Aldrich (Cat. No. C6165) in the form of lyophilized protein, which was dissolved before use in 10 mmol·l^−1 HEPES pH 7.0 to a concentration of 300 μmol·l^−1 and further diluted as required. Human carbonic anhydrase IX (HCA IX) was prepared by recombinant expression system in insect (Drosophila expression system, Invitrogen). […] This protein was further purified from media by chelating chromatography carrier His-Select Nickel Affinity Gel (Sigma, Cat No. P6611) and gel chromatography (Superdex 200 GL 30/300, GE Healthcare) according to the manufacturer's recommendations.
(§2) The principle of the method is based on measuring the rate of acidification of the solution that is observed as the color-shift of the acid-base-indicator (fenol red). The reaction was conducted in a glass tube placed in an ice bath (0° C., all stock solutions and enzymes were kept at the same temperature). […] This was followed by a CO2 saturation (stream flow 50 ml/min.) using a needle (18 G) up to color transition of fenol-red from red to yellow (typically 60 seconds by default). […] End point of reaction was determined by visual comparison with reference tube containing acid-base indicator (0.01% (wt./vol.) Fenol-red) and the pH adjusted to 7.0. […] Molar activity was calculated according to the formula:
(§3) [formula] where tB is the time of negative control without enzyme and tS is the time measured with an enzyme sample (and inhibitor), nprot is the number of moles of protein present in the sample. The value of IC50 for the inhibitor concentration corresponds inhibitor contraction required to decrease the specific activity to half of the value of non-inhibited enzyme. Selectivity towards CA IX inhibitor was calculated as the ratio of IC50 values for inhibition of HCA II against the value of IC50 for inhibition CA IX enzyme.

[3] = target: T2, human carbonic anhydrase IX (hCA IX) (Homo sapiens, UniProt Q16790); assay: Colorimetric carbonic anhydrase inhibition assay (CO2 hydration, phenol red), hCA IX; format: biochemical; conditions: for Selectivity to hCA IX IC50 (hCA II)/IC50 (hCA IX): ratio of IC50 values
T2 construct: Construct contained the extracellular CA domain (amino acid residues 139-390) cloned into the pMT/BiP/V5-His vector; His tag (from vector pMT/BiP/V5-His) (C); BiP secretion signal (from vector pMT/BiP/V5-His) (N); made in house; host or cells: Drosophila expression system (Invitrogen), insect cells, secreted into SF 900 II medium
Protocol: as §1, §2, §3

[4] = 0° C., HEPES pH 7.0, recombinant extracellular CA domain, read-out: IC50 (hCA IX)
[5] = reference value in legend of FIG. 34, read-out: IC 50 CAIX (figure legend)

Row | Substance | pHi [1] | IC50 [2] [µM] | IC50 [3, 4] [µM] | Selectivity to hCA IX IC50 (hCA II)/IC50 (hCA IX) [3] | IC50 [3, 5] [µM]
1 | 1-methylenesulfamide-1,7-dicarba-closo-dodecaborane [CB-19] | 7.319 | 8.9 | 2 | 4.45 | –
2 | 1-methylenesulfamide-3,3′-commo-bis(1,2-dicarba-3-cobalta(III)-closo-dodecabor)ate (1-) [CB-5] | 7.378 | 3.7 | 0.04 | 92.5 | –
3 | 1-methylenesulfamide-9-phenyl-1,2-dicarba-closo-dodecaborane and 1-methylene-sulfamide-12-phenyl-1,2-dicarba-closo-dodecaborane [CB-8] | 7.427 | 2.44 | 0.37 | 6.59 | –
4 | 1-methylensulfamide-1,2-dicarba-closo-dodekaborane [CB-1] | 7.429 | 2.4 | 0.37 | – | –
5 | 1-sulfamide-closo-1-carbadodecaborate (1-) [CB-3] | 7.362 | – | 3.6 | – | –
6 | 7-methylensulfamide-8-phenyl-(7,8-nido-dikarbaundekabor)ate (1-) [CB-6] | 7.352 | 39.1 | 1.08 | 36.2 | –
7 | 7-methylensulfamide-(7,8-nido-dicarbaundekaborate) (1-) [CB-2] | 7.308 | 4.6 | 2.6 | – | –
8 | 8-butyloxysulfamide-3,3′-commo-bis(decahydro-1,2-dicarba-3-cobalta(III)-closo-dodekabor)ate (1-) [CB-16] | 7.442 | 0.68 | 0.28 | 2.43 | 0.28
9 | 8-diethyleneoxysulfamide-3,3′-commo-bis(decahydro-1,2-dicarba-3-cobalta(III)-closo-dodekabor)ate (1-) [CB-17] | 7.412 | 12 | 0.35 | 34.3 | –
10 | 8-ethylaminomethylsulfamide-8″-methoxy-3,3′-commo-bis(decahydro-1,2-dicarba-3-cobalta(III)-closo-dodecabor)ate (1-) [CB-15] | 7.472 | 14 | 2 | 7.00 | –
11 | 8-methylensulfamide-8″-methoxy-3,3′-commo-bis(1,2-dicarba-3-cobalta(III)-closo-dodecabor)ate (1-) [CB-4] | 7.385 | 5 | 0.05 | 100 | 0.05
12 | 8-propylenesulfamide-7-phenyl-(7,8-nido-dicarbaundecabor)ate (1-) [CB-13] | 7.452 | 4 | 0.08 | 48.8 | –
13 | 9-sulfamide-9′-amine-2,2′-commo-bis(1,7,9-trikarba-2-ferra(II)-kloso-dodekabor)ane [CB-12] | 7.395 | 14.9 | 1.49 | 10.0 | –
14 | 10-sulfamide-9′-amine-2,2′-commo-(1,7,10-tricarba-1′,7′,9′-tricarba-2-ferra (II)-closo-dodekabor)ane [CB-10] | 7.328 | 67.9 | 9.68 | 7.0 | –
15 | Di(methylenesulfamide)-1,7-dicarba-closo-dodecaborane [CB-20] | 7.422 | 1.6 | 0.49 | 3.27 | –
